From patent US20080194608A1, “6-Phenylhex-5-Enoic Acid Derivatives, Process for the Preparation Thereof, Pharmaceutical Compositions Comprising Them, and Therapeutic Uses Thereof” (priority 2005, published 2008)

Biological target: T1, chimeric protein PPARγ-Gal4 (Homo sapiens, UniProt P37231)
T1 construct: expressed in transfected cells; host or cells: CV-1 cells (monkey kidney cells)
T1 sequence (P37231 238-503 limits assumed): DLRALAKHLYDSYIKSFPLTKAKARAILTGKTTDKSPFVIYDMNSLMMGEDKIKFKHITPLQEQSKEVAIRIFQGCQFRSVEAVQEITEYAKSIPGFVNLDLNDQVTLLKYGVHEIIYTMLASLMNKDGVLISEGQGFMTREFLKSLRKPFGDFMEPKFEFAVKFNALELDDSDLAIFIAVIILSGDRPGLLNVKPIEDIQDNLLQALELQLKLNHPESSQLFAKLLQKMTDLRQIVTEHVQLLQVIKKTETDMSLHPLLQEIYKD
Test: PPARγ-Gal4 transactivation (luciferase reporter) test in CV-1 cells
Assay type: cell-based
Procedure: The measurement of the PPAR activation was performed according to a technique described by Lehmann et al. (J. Biol. Chem., 270, (1995), 12953-12956).
CV-1 cells (monkey kidney cells) are cotransfected with an expression vector for the chimeric protein PPARγ-Gal4 and with a “reporter” plasmid that allows expression of the luciferase gene placed under the control of a promoter comprising Gal4 response elements.
The cells are seeded in 96-well microplates and cotransfected using a commercial reagent with the reporter plasmid (pG5-tk-pGL3) and the expression vector for the chimeric protein (PPARγ-Gal4). After incubation for 4 hours, whole culture medium (comprising 10% foetal calf serum) is added to the wells. After 24 hours, the medium is removed and replaced with whole medium comprising the test products. The products are left in contact with the cells for 18 hours. The cells are then lysed and the luciferase activity is measured using a luminometer. A PPARγ activation factor can then be calculated by means of the activation of the expression of the reporter gene induced by the product (relative to the control cells that have received no product).
In the absence of the PPARγ ligand binding domain (vector expressing Gal4 alone), the luciferase activity measured in the presence of an agonist is zero.
The following transactivation result was obtained with a concentration of 10 μM on PPARγ.
The transactivation test using the expression of a chimeric protein Gal-4-PPARγ makes it possible to determine also whether an agonist functions as a “full” agonist or as a “partial” agonist in this system.
An agonist is “partial” in this system if it induces a weaker response, i.e. it has lower efficacy, than rosiglitazone, which is a “full” agonist. In concrete terms, in our system, the transactivation obtained at the plateau with a partial agonist will be between 20% and 50% of the maximum response (efficacy) at the plateau of rosiglitazone.

Row | Structure (SMILES) | Activation factor of the chimeric protein PPARγ-Gal4 (10 μM, CV-1 cells (monkey kidney cells), 18 hours contact, relative to control cells without agonist (=1)) | Concentration to reach the maximum stimulation of the PPARγ chimeric protein (CV-1 cells, Gal-4-PPARγ transactivation test) | Emax (transactivation at the plateau relative to maximum response (efficacy) of rosiglitazone, CV-1 cells, read-out: Maximum stimulation of the PPARγ chimeric protein obtained with rosiglitazone)
1 | COc1ccccc1OC(CCC=Cc1cc(F)ccc1OCCc1nc(-c2ccccc2)oc1C)C(=O)O (stereo not drawn) [Example 44, 6-{5-fluoro-2-[2-(5-methyl-2-phenyloxazol-4-yl)ethoxy]phenyl}-2-(2-methoxyphenoxy)hex-5-enoic acid] | 5.8 |  | 
2 | CCc1ccc(CCOc2ccc(F)cc2C=CCCC(Oc2ccc(C(F)(F)F)cc2)C(=O)O)nc1 (stereo not drawn) [Example 51, 6-{2-[2-(5-ethylpyridin-2-yl)ethoxy]-5-fluorophenyl)-2-(4-trifluoromethyl-phenoxy)hex-5-enoic acid] |  | 10 µM | 19%
